According to publication PMC9570109, “Improved Trimethylangelicin Analogs for Cystic Fibrosis: Design, Synthesis and Preliminary Screening” (International Journal of Molecular Sciences, 2022):

Key:
[1] = system: salmon testes DNA; experiment: Photoadduct formation with DNA under UVA irradiation (TLC analysis); conditions: 15 J/cm2 UVA
Procedure: The total energy that struck the sample was monitored by means of a radiometer (Variocontrol, Waldmann, Villingen-Schwenningen, Germany), equipped with a Variocontrol UV Sensor (Waldmann). The radiant power emitted by the UVA lamp was about […]. The samples were maintained at room temperature during irradiation.
The test compounds were dissolved in ethanol (2 mg/mL) and salmon testes DNA (Sigma-Aldrich) was dissolved in 10 mM NaCl and 1 mM EDTA solution (1.5 × 10^−3 M). Each test solution (250 μL) was added dropwise to the DNA solution (5 mL). The mixture was irradiated with 15 J/cm2 UVA light in a glass dish for 1 h. After irradiation, the DNA was precipitated with 1 M NaCl and two volumes of cold ethanol; the precipitated DNA was collected, washed with 80% ethanol, dried, and then dissolved in water. To obtain hydrolysis, the final solution was acidified with 1 M HCl, heated at 100 °C for 1 h, neutralized with NaOH and extracted three times with chloroform. Then, all of the organic layers were collected, dried under a high vacuum, and dissolved in ethanol. The hydrolyzed mixtures were separated by thin layer chromatography (TLC; F254 plates, 0.25 mm, Merck, Darmstadt, Germany) eluting with EtOAc/EtOH (9:1). The plates were analyzed with a Mineral Light Lamp VL-4LC VILBERT-LOURMAT (Vilber, Marne-la-Vallée, France).

[2] = system: Salmonella typhimurium TA98; experiment: Ames mutagenicity assay, plate incorporation, TA98; type: cell-based
Procedure: (§1) The mutagenicity assay was performed for the test compounds following the plate incorporation method with the histidine-requiring Salmonella typhimurium mutant TA97A, TA98, TA100, and TA1535 strains purchased by Molecular Toxicology Inc. (Boone, NC, USA; moltox.com). All strains (100 µL per plate of fresh overnight cultures) were checked with and without the addition of 0.5 mL of a 5% S9 exogenous metabolic activator (S9 mix). The lyophilized post-mitochondrial supernatant S9 mix (Aroclor 1254-induced, Sprague–Dawley male rat liver in 0.154 M KCl solution), commonly used for the activation of pro-mutagens in mutagenic metabolites (Molecular Toxicology, Inc., Boone, NC, USA), was stored at −80 °C before use. The concentration tested for all the samples were 5, 10, 20, 50, and 100 µL/plate from a stock solution of 500 nM. A fully grown culture of the appropriate tester strain (0.1 mL) was added to 2 mL molten top agar (0.6% agar, 0.6% NaCl, 0.5 mM L-histidine/biotin solution) at 46 °C, together with 0.1 mL of each sample solution at different concentrations, and 0.5 mL S9 mix for assays with metabolic activation. The ingredients were thoroughly mixed and poured onto minimal glucose agar plates (1.5% agar in 2% Vogel–Bonner medium E with 5% glucose solution). DMSO was used as negative a control (100 µL/plate). Positive controls were prepared as follows: 2-aminoanthracene (2 µg/plate) and 2-nitrofluorene (2 µg/plate) for TA 97A, TA98 and TA1535 with and without metabolic activator (S9 mix), respectively; 2-aminoanthracene (2 µg/plate) and sodium azide (2 µg/plate) for TA100, with and without metabolic activator (S9 mix), respectively. The plates were incubated at 37 °C for 72 h and then his+ revertants were checked and counted using a Colony Counter 560 Suntex (Antibioticos, Italy). A sample was considered mutagenic when the observed number of colonies was at least twofold over the spontaneous level of revertants. All determinations were made in triplicate. Statistical analysis: relative standard deviations were calculated using the statistical software STATISTICA 6.0 (StatSoft, Italia srl, Vigonza, Italy). […]
(§2) Salmonella typhimurium TA97A Salmonella typhimurium TA98 Salmonella typhimurium TA100 Salmonella typhimurium 1535 […]
(§3) average SD t/c average SD t/c average SD t/c average SD t/c average SD t/c average SD t/c average SD t/c average SD t/c […]
(§4) *Significant values according to Ames computation (Maron & Ames, 1983); DMSO, C+: negative and positive controls respectively; SD: Standard Deviation; t/c: number of revertant colonies in treated plates/number of revertant colonies in […]

[3] = system: Salmonella typhimurium TA97A; experiment: Ames mutagenicity assay, plate incorporation, TA97A; type: cell-based
Procedure: as §1, §2, §3, §4

[4] = system: Salmonella typhimurium 1535; experiment: Ames mutagenicity assay, plate incorporation, TA1535; type: cell-based
Procedure: as §1, §2, §3, §4

[5] = TA98, +S9, 5 µL/plate of 500 nM stock
[6] = TA98, +S9, 10 µL/plate of 500 nM stock
[7] = TA98, +S9, 20 µL/plate of 500 nM stock
[8] = TA98, +S9, 50 µL/plate of 500 nM stock
[9] = TA98, +S9, 100 µL/plate of 500 nM stock
[10] = TA98, -S9, 5 µL/plate of 500 nM stock
[11] = TA98, -S9, 10 µL/plate of 500 nM stock
[12] = TA98, -S9, 20 µL/plate of 500 nM stock
[13] = TA98, -S9, 50 µL/plate of 500 nM stock
[14] = TA98, -S9, 100 µL/plate of 500 nM stock
[15] = +S9, 5 µL/plate of 500 nM stock
[16] = +S9, 10 µL/plate of 500 nM stock
[17] = +S9, 20 µL/plate of 500 nM stock
[18] = +S9, 50 µL/plate of 500 nM stock
[19] = +S9, 100 µL/plate of 500 nM stock
[20] = -S9, 5 µL/plate of 500 nM stock
[21] = -S9, 10 µL/plate of 500 nM stock
[22] = -S9, 20 µL/plate of 500 nM stock
[23] = -S9, 50 µL/plate of 500 nM stock
[24] = -S9, 100 µL/plate of 500 nM stock
[25] = 1535, +S9, 5 µL/plate of 500 nM stock
[26] = 1535, +S9, 10 µL/plate of 500 nM stock
[27] = 1535, +S9, 20 µL/plate of 500 nM stock
[28] = 1535, +S9, 50 µL/plate of 500 nM stock
[29] = 1535, +S9, 100 µL/plate of 500 nM stock
[30] = 1535, -S9, 5 µL/plate of 500 nM stock
[31] = 1535, -S9, 10 µL/plate of 500 nM stock
[32] = 1535, -S9, 20 µL/plate of 500 nM stock
[33] = 1535, -S9, 50 µL/plate of 500 nM stock
[34] = 1535, -S9, 100 µL/plate of 500 nM stock

Cc1cc(=O)oc2c1cc(-c1ccccc1)c1occ(C)c12 [6-PhDMA]
photoadduct formation with DNA upon UVA irradiation [1]: only the unchanged bands
revertant colonies, average [2, 5]: 45.5
t/c (revertant colonies treated/untreated plates) [2, 5]: 1.0
revertant colonies, average [2, 6]: 49.5
t/c (revertant colonies treated/untreated plates) [2, 6]: 1.1
revertant colonies, average [2, 7]: 46.5
t/c (revertant colonies treated/untreated plates) [2, 7]: 1.0
revertant colonies, average [2, 8]: 46.0
t/c (revertant colonies treated/untreated plates) [2, 8]: 1.0
revertant colonies, average [2, 9]: 45.0
t/c (revertant colonies treated/untreated plates) [2, 9]: 1.0
revertant colonies, average [2, 10]: 37.5
t/c (revertant colonies treated/untreated plates) [2, 10]: 1.0
revertant colonies, average [2, 11]: 41.0
t/c (revertant colonies treated/untreated plates) [2, 11]: 1.1
revertant colonies, average [2, 12]: 38.0
t/c (revertant colonies treated/untreated plates) [2, 12]: 1.0
revertant colonies, average [2, 13]: 43.5
t/c (revertant colonies treated/untreated plates) [2, 13]: 1.1
revertant colonies, average [2, 14]: 40.0
t/c (revertant colonies treated/untreated plates) [2, 14]: 1.0
revertant colonies, average [3, 15]: 116.5
t/c (revertant colonies treated/untreated plates) [3, 15]: 1.1
revertant colonies, average [3, 16]: 92.5
t/c (revertant colonies treated/untreated plates) [3, 16]: 0.8
revertant colonies, average [3, 17]: 99.0
t/c (revertant colonies treated/untreated plates) [3, 17]: 0.9
revertant colonies, average [3, 18]: 107.0
t/c (revertant colonies treated/untreated plates) [3, 18]: 1.0
revertant colonies, average [3, 19]: 101.0
t/c (revertant colonies treated/untreated plates) [3, 19]: 0.9
revertant colonies, average [3, 20]: 75.0
t/c (revertant colonies treated/untreated plates) [3, 20]: 1.0
revertant colonies, average [3, 21]: 69.5
t/c (revertant colonies treated/untreated plates) [3, 21]: 0.9
revertant colonies, average [3, 22]: 86.5
t/c (revertant colonies treated/untreated plates) [3, 22]: 1.1
revertant colonies, average [3, 23]: 79.5
t/c (revertant colonies treated/untreated plates) [3, 23]: 1.0
revertant colonies, average [3, 24]: 88.5
t/c (revertant colonies treated/untreated plates) [3, 24]: 1.1
revertant colonies, average [4, 25]: 13.5
t/c (revertant colonies treated/untreated plates) [4, 25]: 1.3
revertant colonies, average [4, 26]: 12.5
t/c (revertant colonies treated/untreated plates) [4, 26]: 1.2
revertant colonies, average [4, 27]: 10.0
t/c (revertant colonies treated/untreated plates) [4, 27]: 0.9
revertant colonies, average [4, 28]: 10.0
t/c (revertant colonies treated/untreated plates) [4, 28]: 0.9
revertant colonies, average [4, 29]: 14.0
t/c (revertant colonies treated/untreated plates) [4, 29]: 1.3
revertant colonies, average [4, 30]: 13.5
t/c (revertant colonies treated/untreated plates) [4, 30]: 1.2
revertant colonies, average [4, 31]: 14.5
t/c (revertant colonies treated/untreated plates) [4, 31]: 1.3
revertant colonies, average [4, 32]: 7.5
t/c (revertant colonies treated/untreated plates) [4, 32]: 0.7
revertant colonies, average [4, 33]: 8.0
t/c (revertant colonies treated/untreated plates) [4, 33]: 0.7
revertant colonies, average [4, 34]: 9.0
t/c (revertant colonies treated/untreated plates) [4, 34]: 0.8
